Data as given in article PMC5531749 (Psychopharmacology, 2016).
Read-outs that look alike come from different tables or passages of the source.

What was measured:
[1] = test system: visceral insular cortex (VIC) of rats; settings: intra-VIC, cited from earlier work
[2] = test system: AEA and 2-AG in rat whole brain tissue; settings: ref Limebeer et al. 2014; cited from earlier work
male Sprague-Dawley rats [3] = settings: cited from earlier work
rat MAGL = settings: ref Limebeer et al. 2014; cited from earlier work
[4] = test system: 2AG and AEA levels in nucleus accumbens; settings: localized brain area; ref Wiskerke et al. (2012); cited from earlier work
male Sprague-Dawley rats [5] = settings: cited from earlier work; remark: listed apart in the source
[6] = test system: 2-AG and AEA in VIC tissue; settings: systemic and intra-VIC administration; ref Sticht et al. (2015); cited from earlier work
male Sprague-Dawley rats [7] = type: in vivo, rat; settings: SR141716 2.5 mg/kg 90 min after AM4301 20 mg/kg
male Sprague-Dawley rats [8] = assay: Anticipatory nausea: contextually elicited conditioned gaping; type: in vivo, rat
[9] = 10–20 mg/kg systemic, CB1 receptor-dependent, ref Parker et al. 2014

CCCCCCC(C)(C)c1cc(O)c2c(c1)OC(C)(C)[C@@H]1CC=C(CO)C[C@@H]21 [HU-210]
acute nausea after administration into the VIC ([1]; ref Limebeer et al. 2012): suppressed

O=C(Oc1ccc([N+](=O)[O-])cc1)N1CCN(Cc2cccc(Oc3ccccc3)c2)CC1 [JZL195]
AEA in rat whole brain tissue [2]: elevated | anticipatory nausea, dual FAAH/MAGL inhibitor (male Sprague-Dawley rats [3]; 10 mg/kg, ref Limebeer et al. 2014): suppresses | blocking the activities of rat MAGL in whole brain analysis (rat MAGL): ineffective | elevation of 2AG level in nucleus accumbens [4]: about 50% | elevation of AEA level in nucleus accumbens [4]: ~100%

O=C(ON1C(=O)CCC1=O)N1CCN(C(c2ccc(Cl)cc2)c2ccc(Cl)cc2)CC1 [MJN110]
acute nausea after administration into the VIC ([1]; ref Sticht et al. 2012b): suppressed | acute nausea, systemic MAGL inhibitor (male Sprague-Dawley rats [5]; [9]): suppresses | anticipatory nausea, systemic MAGL inhibitor (male Sprague-Dawley rats [3]; [9]): suppresses | 2-AG in the VIC [6]: elevates

Cc1c(C(=O)NN2CCCCC2)nn(-c2ccc(Cl)cc2Cl)c1-c1ccc(Cl)cc1 [SR141716]
reversal of AM4301 suppression of acute nausea by CB1 antagonist (male Sprague-Dawley rats [7]): reversed the suppressive effect of AM4301 | reversal of AM4302 suppression of anticipatory nausea by CB1 antagonist (male Sprague-Dawley rats [8]; SR 2.5 mg/kg 90 min after AM4302 20 mg/kg): reversed | effect of CB1 antagonist on its own on contextually elicited gaping (male Sprague-Dawley rats [8]; VEH-SR 2.5 mg/kg): did not have an effect on its own

NC(=O)c1cccc(-c2cccc(OC(=O)NC3CCCCC3)c2)c1 [URB597, cyclohexyl carbamic acid 3′-carbamoyl-biphenyl-3-yl ester]
acute nausea, systemic FAAH inhibitor (male Sprague-Dawley rats [5]; 0.3 mg/kg systemic, ref Cross-Mellor et al. 2007): suppresses | anticipatory nausea, systemic FAAH inhibitor (male Sprague-Dawley rats [3]; 0.3 mg/kg systemic, ref Rock et al. 2008): suppresses
